# Results from patent publication US9867831B2, “Combination treatment of acute myeloid leukemia and myelodysplastic syndrome” (Boehringer Ingelheim International GmbH, priority 2014, dated 2018).
# Test system: human AML cell line MV4;11
# Assay: Nude mouse xenograft model derived from human AML cell line MV4;11 (tumor growth)
# Type: in vivo
# Details: MV4;11 s.c. xenograft in nude mice; Volasertib 20 mg/kg once a week i.v., Quizartinib 5 or 10 mg/kg daily p.o.; treated 14 days, observation without treatment up to day 87
# Protocol: Median tumor volumes are plotted over time. Day 1 was the first day, day 87 the last day of the experiment.
# MV4;11 (CRL-9591) cells were obtained from ATCC. […] Cells were cultured in T175 tissue culture flasks at 37° C. and 5% CO2. The medium used was IMDM supplemented with 10% fetal calf serum, 1% NEAA, 1% sodium pyruvate and 1% glutamine.
# Mice were 8 week-old athymic female BomTac: NMRI-Foxn1^nu purchased from Taconic, Denmark. After arrival in the animal facility, mice were allowed to adjust to ambient conditions for at least 3 days before they were used for experiments. They were housed in Macrolon® type II cages in groups of 5 under standardized conditions at 21.5±1.5° C. temperature and 55±10% humidity. Standardized diet (PROVIMI KLIBA) and autoclaved tap water were provided ad libitum.
# To establish subcutaneous tumors, MV4;11 cells were harvested and resuspended in PBS+5% FCS at 5×10^7 cells/ml. 50 μl of the cell suspension containing 2.5×10^6 cells was then injected subcutaneously into the right flank of the mice (1 site per mouse). […]
# The tumor diameter was measured three times a week with a caliper. The volume of each tumor [in mm^3] was calculated according to the formula “tumor volume=length*diameter^2*π/6”. To monitor side effects of treatment, mice were inspected daily for abnormalities and body weight was determined three times a week. […]
compound,measurement,value
CC(C)(C)c1cc(NC(=O)Nc2ccc(-c3cn4c(n3)sc3cc(OCCN5CCOCC5)ccc34)cc2)no1 [Quizartinib],tumor growth kinetics (median tumor volumes over time),outgrowth of the tumor
